≈ marks a conversion by molar mass, not a printed value. Where “and” joins values, the source holds several entries; their conditions need not be identical. Equal entries are not always repeated. Where two headings read alike, the source gives them in different places. Each block holds one molecule with its values, some of them ahead of it.
Tests used:
[1] = tested on: Escherichia coli (E. coli); assay: In vitro antibacterial activity, progressive double dilutions, culture turbidity; assay type: cell-based; conditions: for MIC: ampicillin reference against E.coli (BL21)
Text: (§1) The growth of bacteria was estimated by measuring the turbidity of the culture, as previously reported. […] The pH of the media was adjusted to 7.0.

[2] = tested on: MRC5 human normal lung cells; assay: MTT cytostatic/cytotoxic assay; assay type: cell-based; conditions: MRC5, 48 h treatment; for IC50: cytocidal/cytotoxic; for GI50: growth inhibition; for TGI: total growth inhibition
Description: (§2) The cell lines were obtained from the American Type of Culture collection (ATCC), except HuP-T3 which was kindly donated from University of Crete, School of Medicine, Greece, and were grown in different culture medium according to the instructions.
(§3) For the determination of the cell viability, it was employed the MTT assay. Cells were plated in 96-well plate at a density of 1 × 10^4 cells/mL per well and maintained for 72 h at 37 °C in a 5% CO2 incubator and grown as monolayers. […] The viability of cultured cells was estimated by a (3-(4,5-imethylthiazol-2-yl)-2,5-diphenyltetrazolium bromide (MTT) metabolic assay as previously described.
(§4) In brief, MTT (Sigma, St Louis, Missouri, USA) was dissolved in PBS in a concentration of 5 mg/mL, filter sterilized, and stored at 4 °C. Then, 50 μL of stock solution was added to each culture and incubated for 3 h at 37 °C. Formazan crystals were solubilized by DMSO (100 μL). Absorbance of the converted dye was measured at a wavelength of 540 nm on ELISA reader (VersaMax Microplate Reader Orleans, USA). […] Using seven absorbance measurements [time 24 h (Ct24), control growth 72 h (Ct72), and test growth in the presence of drug at five concentration levels (Tt72x)], the percentage of growth was calculated at each level of the drug concentrations. The percentage growth inhibition was calculated according to National Cancer Institute (NCI) as: {[(Tt72x) − (Ct24)]/[(Ct72) − (Ct24)]} × 100 for concentrations for which Tt72x>Ct24 and {(Tt72x) − (Ct24)]/(Ct24)} × 100 for concentrations for which Tt72x<Ct24. […] All experiments were carried out in triplicate. A significant difference was presumed to exist when p ≤ 0.05 (two tailed paired t test).

[3] = tested on: SKOV-3 ovarian cancer cells; assay: MTT cytostatic/cytotoxic assay; assay type: cell-based, human; conditions: SKOV-3, 48 h treatment; for LC50: cytocidal/cytotoxic, read-out: IC50 (the source's name); for GI50: growth inhibition; for TGI: total growth inhibition
Description: as §2, §3
as §4, with “Using seven absorbance measurements [time 24 h (Ct24), control growth 72 h (Ct72), and test growth in the presence of drug at five concentration levels (Tt72x)], the percentage of growth was calculated at each level of the drug concentrations.” left out

[4] = tested on: DMS114 small cell lung cancer cells; assay: MTT cytostatic/cytotoxic assay; assay type: cell-based, human; conditions: DMS114, 48 h treatment; for LC50: cytocidal/cytotoxic, read-out: IC50 (the source's name); for GI50: growth inhibition; for TGI: total growth inhibition
Description: as §2, §3
as §4, with “Using seven absorbance measurements [time 24 h (Ct24), control growth 72 h (Ct72), and test growth in the presence of drug at five concentration levels (Tt72x)], the percentage of growth was calculated at each level of the drug concentrations.” left out

[5] = tested on: Bacillus cereus (B. cereus); assay: In vitro antibacterial activity, progressive double dilutions, culture turbidity; assay type: cell-based
Text: as §1

[6] = tested on: Staphylococcus aureus (S. aureus); assay: as above; assay type: cell-based
Text: as §1

[7] = tested on: Bacillus subtilis (B. subtilis); assay: as above; assay type: cell-based
Text: as §1

[8] = Reduction of hydrogen peroxide; conditions: compound 0.1 mM, 20 min, phosphate buffer pH 7.4
Description: In vitro antioxidant activity studies for 1–4 and their free ligands were performed in order to determine their ability to scavenge DPPH, and ABTS free radicals and to reduce H2O2 and was compared with the antioxidant capacity of reference compounds (NDGA, BHT, trolox and ascorbic acid).
The absorbance was measured at 230 nm after 20 min. The antioxidant activity of the compounds was expressed as percent reduction of H2O2 (%H2O2). Ascorbic acid (or vitamin C) was used as an appropriate standard.

[9] = tested on: PC3 prostate adenocarcinoma cells; assay: MTT cytostatic/cytotoxic assay; assay type: cell-based, human; conditions: PC3, 48 h treatment; for LC50: cytocidal/cytotoxic, read-out: IC50 (the source's name); for GI50: growth inhibition; for TGI: total growth inhibition
Description: as §2, §3, §4

[10] = tested on: Hup-T3 pancreatic adenocarcinoma cells; assay: MTT cytostatic/cytotoxic assay; assay type: cell-based, human; conditions: Hup-T3, 48 h treatment; for IC50: cytocidal/cytotoxic; for GI50: growth inhibition; for TGI: total growth inhibition
Description: as §2, §3, §4

calf-thymus (CT) DNA = assay: CT DNA interaction by UV-visible spectroscopy; conditions: DMSO solution, upon addition of CT DNA; + hyperchromism, – hypochromism
Description: The UV-visible spectra of CT DNA solution (1.5 × 10^−4 M) were recorded in the presence of each compound at diverse [compound]/[DNA] mixing ratios (r).

[11] = Escherichia coli, read-out: MIC
[12] = value in parentheses, mean ± SD, read-out: IC50
[13] = Escherichia coli, read-out: IC50
[14] = Bacillus cereus, read-out: IC50
[15] = Staphylococcus aureus, read-out: IC50
[16] = Staphylococcus aureus, read-out: MIC
[17] = Bacillus subtilis, read-out: IC50
[18] = Bacillus subtilis, read-out: MIC

MIC [1, 11]: 100 µg/mL (≈ 286 µM)
SMILES: CC1(C)S[C@@H]2[C@H](NC(=O)[C@H](N)c3ccccc3)C(=O)N2[C@H]1C(=O)O [Ampicillin, reference compound]

SMILES: N.N.[Cl][Pt][Cl] [Cisplatin, reference compound]
IC50 [2]: 36 ± 2 µM | GI50 [2]: 8 ± 1 µM | TGI [2]: 24±2 μΜ

SMILES: Cc1n[nH]c(=S)s1.[Cl][Ag].c1ccc(P(c2ccccc2)c2ccccc2)cc1.c1ccc(P(c2ccccc2)c2ccccc2)cc1 [Compound 1, [AgCl(mtdztH)(PPh3)2]]
LC50 [3]: 5.7 ± 0.4 µM | GI50 [3]: 1.2 ± 0.2 µM | TGI [3]: 3.1±0.4 μΜ | LC50 [4]: 4.5 ± 0.3 µM | GI50 [4]: 1.9 ± 0.1 µM | TGI [4]: 3.1±0.1 μΜ | IC50 [1]: higher than 100 μg/mL | activity against the Gram-(–) E. coli bacteria (in words) [1]: negligible activity | MIC [1]: higher than 100 μg/mL | IC50 [5]: 81 µg/mL | MIC [5]: 100 µg/mL | IC50 [5, 12]: 101 ± 10.3 µM | IC50 [6]: 16 µg/mL | MIC [6]: 100 µg/mL | IC50 [6, 12]: 20 ± 3.2 µM | IC50 [7]: 21 µg/mL | MIC [7]: 100 µg/mL | IC50 [7, 12]: 26 ± 4 µM | H2O2 reducing ability (%H2O2) [8]: 74.85±0.79% | LC50 [9]: 9.6 ± 0.5 µM | GI50 [9]: 3 ± 0.3 µM | TGI [9]: 5.7±0.5 μΜ | IC50 [10]: 9.2 ± 0.3 µM | GI50 [10]: 2.2 ± 0.2 µM | TGI [10]: 4.1±0.3 μΜ | IC50 [2]: 9.2 ± 0.8 µM | GI50 [2]: 3 ± 0.5 µM | TGI [2]: 5.2±0.5 μΜ

SMILES: Cc1nnc([S][Ag])s1.c1ccc(P(c2ccccc2)c2ccccc2)cc1.c1ccc(P(c2ccccc2)c2ccccc2)cc1.c1ccc(P(c2ccccc2)c2ccccc2)cc1 [Compound 2, [Ag(mtdzt)(PPh3)3]]
LC50 [3]: 4.1 ± 0.3 µM | GI50 [3]: 1.9 ± 0.2 µM | TGI [3]: 3.0±0.3 μΜ | LC50 [4]: 4 ± 0.25 µM | GI50 [4]: 1.2 ± 0.05 µM | TGI [4]: 2.6±0.1 μΜ | IC50 [1]: higher than 100 μg/mL | activity against the Gram-(–) E. coli bacteria (in words) [1]: negligible activity | MIC [1]: higher than 100 μg/mL | IC50 [5]: 12.5 µg/mL | MIC [5]: 100 µg/mL | IC50 [5, 12]: 12 ± 1.4 µM | IC50 [6]: 17 µg/mL | MIC [6]: 100 µg/mL | IC50 [6, 12]: 16 ± 2.6 µM | IC50 [7]: 20 µg/mL | MIC [7]: 100 µg/mL | IC50 [7, 12]: 19 ± 2.8 µM | H2O2 reducing ability (%H2O2) [8]: 80.59±0.55% and 80% | LC50 [9]: 4.4 ± 0.15 µM | GI50 [9]: 2 ± 0.05 µM | TGI [9]: 3.2±0.12 μΜ | IC50 [10]: 4.5 ± 0.2 µM | GI50 [10]: 1.9 ± 0.2 µM | TGI [10]: 3.2±0.2 μΜ | IC50 [2]: 4.1 ± 0.06 µM | GI50 [2]: 2 ± 0.02 µM | TGI [2]: 3.0±0.05 μΜ

SMILES: O=C1O[C@H]([C@@H](O)CO)C(O)=C1O [L-ascorbic acid, reference compound]
H2O2 reducing ability (%H2O2) [8]: 60.80±0.20%

SMILES: c1ccc(P(c2ccccc2)c2ccccc2)cc1 [PPh3, thriphenylphosphine, reference compound]
IC50 [1]: 51 µg/mL | MIC [1]: higher than 100 μg/mL | IC50 [1, 12]: 194 ± 2 µM | IC50 [5]: 70 µg/mL | MIC [5]: higher than 100 μg/mL | IC50 [5, 12]: 267 ± 9 µM | IC50 [6]: 70 µg/mL | MIC [6]: higher than 100 μg/mL | IC50 [6, 12]: 267 ± 2.2 µM | IC50 [7]: higher than 100 μg/mL | MIC [7]: higher than 100 μg/mL | IC50 [7, 12]: > 380 µM | H2O2 reducing ability (%H2O2) [8]: 87.96±1.32%

MIC [1, 11]: > 100 µg/mL | IC50 [1, 13]: > 100 µg/mL | IC50 [5, 14]: > 100 µg/mL | MIC ([5]; Bacillus cereus, read-out: MIC): > 100 µg/mL | IC50 [6, 15]: > 100 µg/mL | MIC [6, 16]: > 100 µg/mL | IC50 [7, 17]: > 100 µg/mL | MIC [7, 18]: > 100 µg/mL
SMILES: c1ccc(P(CCP(c2ccccc2)c2ccccc2)c2ccccc2)cc1 [dppe, 1,2-bis(diphenylphosphino)ethane, reference compound]
H2O2 reducing ability (%H2O2) [8]: 92.64±0.71%

SMILES: Cc1nnc(S)s1 [mtdztH, 5-methyl-1,3,4-thiadiazole-2-thiol, reference compound]
percentage of hyper-/hypochromism ΔA/Aο (calf-thymus (CT) DNA): –12% | MIC [1, 11]: > 100 µg/mL | IC50 [1, 13]: 30 µg/mL | IC50 ([1]; Escherichia coli, value in parentheses, mean ± SD, read-out: IC50): 227 ± 6 µM | IC50 [5, 14]: 21 µg/mL | MIC ([5]; Bacillus cereus, read-out: MIC): > 100 µg/mL | IC50 ([5]; Bacillus cereus, value in parentheses, mean ± SD, read-out: IC50): 159 ± 8.9 µM | IC50 [6, 15]: 21 µg/mL | MIC [6, 16]: > 100 µg/mL | IC50 ([6]; Staphylococcus aureus, value in parentheses, mean ± SD, read-out: IC50): 159 ± 9 µM | IC50 [7, 17]: 53 µg/mL | MIC [7, 18]: > 100 µg/mL | IC50 ([7]; Bacillus subtilis, value in parentheses, mean ± SD, read-out: IC50): 401 ± 16.2 µM | H2O2 reducing ability (%H2O2) [8]: 97.17±0.10%

— publication PMC9823356, “Inhibition of Cancer Cell Proliferation and Bacterial Growth by Silver(I) Complexes Bearing a CH3-Substituted Thiadiazole-Based Thioamide” (Molecules, 2023)
